# Biological target: T1, human TrkA (Homo sapiens, UniProt P04629)
# T1 construct: purchased Lifetechnologies PV3144
# Experiment: Test Example 2: Human TrkA Inhibition Assay
# Type: biochemical
# Conditions: not given
# Protocol: After the incubation for 90 min at room temperature, ten μL of termination buffer (100 mmol/L HEPES, 40 mmol/L ethylenediaminetetraacetic acid (EDTA), 10 mmol/L magnesium chloride, 0.003 vol % Brij-35, 0.004 vol % Tween20, 1 mmol/L DTT and 0.16 vol % Coating Reagent 3) was added in each well to stop the enzyme reaction. Fluorescent intensities (FI) of phosphorylated and non-phosphorylated fluorescent substrates were measured by LabChip EZReader II (Caliper LifeSciences, Inc.) and conversion ratio (CR) was calculated by the following formula-1. The CR in the well applied with DMSO alone was used as a negative control and the CR in the well without applying TrkA was used as a positive control. The inhibitory effect of each compound on TrkA phosphorylation was calculated by the following formula-2. CR (%)=(FI of phosphorylated substrate/(FI of phosphorylated substrate+FI of non-phosphorylated substrate))×100 (Formula-1) Inhibitory effect on TrkA phosphorylation (%)=(1−(CR in compound treated well−CR in positive control)/(CR in negative control−CR in positive control))×100. (Formula-2)
# T1 sequence (P04629 33-796): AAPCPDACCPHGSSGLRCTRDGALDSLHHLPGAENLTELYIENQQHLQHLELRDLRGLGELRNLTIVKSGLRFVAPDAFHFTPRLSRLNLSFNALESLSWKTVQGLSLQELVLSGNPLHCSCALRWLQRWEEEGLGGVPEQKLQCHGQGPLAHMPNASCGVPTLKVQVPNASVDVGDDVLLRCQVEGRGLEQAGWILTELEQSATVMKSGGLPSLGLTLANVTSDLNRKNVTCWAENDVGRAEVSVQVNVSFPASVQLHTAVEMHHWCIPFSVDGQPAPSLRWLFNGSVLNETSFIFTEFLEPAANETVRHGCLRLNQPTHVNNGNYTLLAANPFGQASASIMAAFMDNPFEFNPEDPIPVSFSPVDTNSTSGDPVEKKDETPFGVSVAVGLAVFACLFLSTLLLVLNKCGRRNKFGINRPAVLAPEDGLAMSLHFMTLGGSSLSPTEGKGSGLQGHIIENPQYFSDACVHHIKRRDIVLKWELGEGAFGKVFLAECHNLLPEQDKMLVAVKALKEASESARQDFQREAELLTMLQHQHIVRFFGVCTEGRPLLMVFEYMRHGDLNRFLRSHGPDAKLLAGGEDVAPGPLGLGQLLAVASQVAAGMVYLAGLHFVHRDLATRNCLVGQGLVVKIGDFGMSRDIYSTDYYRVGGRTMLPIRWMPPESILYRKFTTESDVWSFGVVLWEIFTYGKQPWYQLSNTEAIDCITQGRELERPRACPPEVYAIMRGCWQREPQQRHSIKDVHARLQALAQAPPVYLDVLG
row,Structure (SMILES),IC50 [nM]
1,Cc1c(-c2cnn(C)c2)nn(-c2ccccc2)c1NC(=O)N[C@H]1[C@H](c2ccc(F)c(F)c2)[C@@H]2CC[C@H]1N2Cc1csnn1 (racemic) [Compound I-71],300

# Same assay, conditions: Test Example 2; human TrkA 2.5 nmol/L, ATP 500 μmol/L, 90 min at room temperature; read-out: TrkA inhibitory activity IC50
row,Structure (SMILES),IC50 [nM]
1,COCC(Cn1cccn1)N1C[C@@H](NC(=O)Nc2c(C)c(-c3cnn(C)c3)nn2-c2ccccc2)[C@H](c2ccc(F)c(F)c2)C1 (some centres unmarked) [Compound I-100],34
2,Cc1c(-c2cnn(C)c2)nn(-c2ccccc2)c1NC(=O)N[C@@H]1CN(CC2(C)COC2)C[C@H]1c1ccc(F)c(F)c1 [Compound I-142],1300
3,COCCC1(C)C[C@@H](NC(=O)Nc2c(C)c(-c3cnn(C)c3)nn2-c2ccccc2)[C@H](c2ccccc2)C1 (some centres unmarked) [Compound I-132],480
4,Cc1c(-c2cnn(C)c2)nn(-c2ccccc2)c1NC(=O)N[C@@H]1CC2(CC(=O)C2)C[C@H]1c1ccccc1 (racemic) [Compound I-157],3300
5,COCC(CN1CC(F)(F)C1)N1C[C@@H](NC(=O)Nc2c(C)c(-c3cnn(C)c3)nn2-c2ccccc2)[C@H](c2ccc(F)c(F)c2)C1 (some centres unmarked) [Compound I-106],79
6,COCCN1C[C@@H](NC(=C[N+](=O)[O-])Nc2c(C)c(-c3cnn(C)c3)nn2-c2ccccc2)[C@H](c2ccccc2)C1 [Compound I-146],1800

# Same assay, conditions: human TrkA inhibition, Test Example 2; class symbols A/B/C; read-out: IC50_nM
row,Structure (SMILES),IC50 [nM]
1,Cc1c(-c2cnn(C)c2)nn(-c2ccccc2)c1NC(=O)N[C@@H]1CN(C2CC(F)(F)C2)C[C@H]1c1ccc(F)c(F)c1 [Compound I-38],> 1000
2,COCC(CNC(N)=O)N1C[C@@H](NC(=O)Nc2c(C)c(-c3cnn(C)c3)nn2-c2ccccc2)[C@H](c2ccc(F)c(F)c2)C1 (some centres unmarked) [Compound I-111],< 100
3,Cc1c(-c2cnn(C)c2)nn(-c2ccccc2)c1NC(=O)N[C@@H]1CN(Cc2cscn2)C[C@H]1c1ccc(F)c(F)c1 [Compound I-90],< 100
4,COCC(C(N)=O)N1C[C@@H](NC(=O)Nc2c(C)c(-c3cnn(C)c3)nn2-c2ccccc2)[C@H](c2ccc(F)c(F)c2)C1 (some centres unmarked) [Compound I-116],100 to 1000
5,Cc1c(-c2cnn(C)c2)nn(-c2ccccc2)c1NC(=O)N[C@@H]1CN(C2COC(=O)C2)C[C@H]1c1ccc(F)c(F)c1 (some centres unmarked) [Compound I-152],> 1000
6,COCCN1C[C@@H](NC(=O)Nc2c(C)c(-c3cnn(C)c3)nn2-c2ccccc2)[C@H](c2cccc(-c3ccoc3)c2)C1 (racemic) [Compound I-51],< 100
7,COCC(CN1CCC1)N1C[C@@H](NC(=O)Nc2c(C)c(-c3cnn(C)c3)nn2-c2ccccc2)[C@H](c2ccc(F)c(F)c2)C1 (some centres unmarked) [Compound I-119],100 to 1000
8,Cc1c(-c2cnn(C)c2)nn(-c2ccccc2)c1NC(=O)N[C@@H]1CN(Cc2nccn2C2CC2)C[C@H]1c1ccc(F)c(F)c1 [Compound I-147],> 1000
9,Cc1c(-c2cnn(C)c2)nn(-c2ccccc2)c1NC(=O)N[C@@H]1CN(CCNS(C)(=O)=O)C[C@H]1c1ccc(F)c(F)c1 [Compound I-42],100 to 1000
10,CC(=O)NCCN1C[C@@H](NC(=O)Nc2c(C)c(-c3cnn(C)c3)nn2-c2ccccc2)[C@H](c2ccc(F)c(F)c2)C1 [Compound I-40],> 1000
11,COCCN1C[C@@H](NC(=O)Nc2c(C)c(-c3cnn(C)c3)nn2-c2ccccc2)[C@H](c2cccc(N(C)C)c2)C1 (racemic) [Compound I-171],> 1000
12,Cc1c(-c2cnn(C)c2)nn(-c2ccccc2)c1NC(=O)N[C@@H]1CN(c2nnn(C)n2)C[C@H]1c1ccc(F)c(F)c1 [Compound I-151],> 1000
13,COCC(C(=O)N(C)OC)N1C[C@@H](NC(=O)Nc2c(C)c(-c3cnn(C)c3)nn2-c2ccccc2)[C@H](c2ccc(F)c(F)c2)C1 (some centres unmarked) [Compound I-169],> 1000
14,COCC(C[n+]1ccccc1)N1C[C@@H](NC(=O)Nc2c(C)c(-c3cnn(C)c3)nn2-c2ccccc2)[C@H](c2ccc(F)c(F)c2)C1 (some centres unmarked) [Compound I-110],< 100
15,COCC[C@H]1C[C@@H](NC(=O)Nc2c(C)c(-c3cnn(C)c3)nn2-c2ccccc2)[C@H](c2ccccc2)C1 [Compound I-95],< 100
16,CC(=O)N1C[C@@H](NC(=O)Nc2c(C)c(-c3cnn(C)c3)nn2-c2ccccc2)[C@H](c2ccc(F)c(F)c2)C1 [Compound I-28],> 1000
17,C=C1C[C@@H](NC(=O)Nc2c(C)c(-c3cnn(C)c3)nn2-c2ccccc2)[C@H](c2ccc(F)cc2)C1 (racemic) [Compound I-65],< 100
18,Cc1c(-c2cnn(C)c2)nn(-c2ccccc2)c1NC(=O)N[C@@H]1CN(C2COC2)C[C@H]1c1ccc(F)c(F)c1 [Compound I-37],100 to 1000
19,COCCN1C[C@@H](NC(=O)Nc2c(C)c(-c3cnn(C)c3)nn2-c2ccccc2)[C@H](c2cccc(-c3ccncc3)c2)C1 (racemic) [Compound I-60],> 1000
20,COCCN1C[C@@H](NC(=O)Nc2c(C)c(-c3cnn(C)c3)nn2-c2ccccc2)[C@H](c2ccc3c(c2)N(C(=O)OC(C)(C)C)CCO3)C1 (racemic) [Compound I-167],> 1000
21,Cc1c(-c2cnn(C)c2)nn(-c2ccccc2)c1NC(=O)N[C@@H]1C[N+](C)(C)C[C@H]1c1ccc(F)c(F)c1 [Compound I-25],> 1000
22,Cc1c(-c2cnn(C)c2)nn(-c2ccccc2)c1NC(=O)N[C@@H]1CN(CC2CCCCO2)C[C@H]1c1ccc(F)c(F)c1 (some centres unmarked) [Compound I-43],> 1000
23,COCCN1C[C@@H](NC(=O)Nc2c(C)c(-c3cnn(C)c3)nn2-c2ccccc2)[C@H](c2cc3ccccc3o2)C1 (racemic) [Compound I-134],100 to 1000

row,Structure (SMILES),IC50 [nM]
1,Cc1c(-c2cnn(C)c2)nn(-c2ccccc2)c1NC(=O)N[C@@H]1CN(C(CO)c2ccco2)C[C@H]1c1ccc(F)c(F)c1 (some centres unmarked) [Compound I-108],< 100
2,COCC(CN(C)C)N1C[C@@H](NC(=O)Nc2c(C)c(-c3cnn(C)c3)nn2-c2ccccc2)[C@H](c2ccc(F)c(F)c2)C1 (some centres unmarked) [Compound I-115],100 to 1000
3,COCCOCCN1C[C@@H](NC(=O)Nc2c(C)c(-c3cnn(C)c3)nn2-c2ccccc2)[C@H](c2ccc(F)c(F)c2)C1 [Compound I-81],100 to 1000
4,Cc1c(-c2cnn(C)c2)nn(-c2ccccc2)c1NC(=O)N[C@@H]1CCC[C@H]1c1ccccc1 (racemic) [Compound I-13],> 1000
5,Cc1c(-c2cnn(C)c2)nn(-c2ccccc2)c1NC(=O)N[C@@H]1CN(CC2CC2)C[C@H]1c1ccc(F)c(F)c1 [Compound I-66],100 to 1000
6,COCCN1C[C@@H](NC(=O)Nc2c(C)c(OCC(C)(C)O)nn2-c2ccccc2)[C@H](C2CCC(F)(F)CC2)C1 (racemic) [Compound I-34],> 1000
7,COCC(Cn1ccnc1)N1C[C@@H](NC(=O)Nc2c(C)c(-c3cnn(C)c3)nn2-c2ccccc2)[C@H](c2ccc(F)c(F)c2)C1 (some centres unmarked) [Compound I-127],100 to 1000
8,COCC(CN)N1C[C@@H](NC(=O)Nc2c(C)c(-c3cnn(C)c3)nn2-c2ccccc2)[C@H](c2ccc(F)c(F)c2)C1 (some centres unmarked) [Compound I-131],100 to 1000
9,COC(=O)NCCN1C[C@@H](NC(=O)Nc2c(C)c(-c3cnn(C)c3)nn2-c2ccccc2)[C@H](c2ccc(F)c(F)c2)C1 [Compound I-41],> 1000
10,Cc1c(-c2cnn(C)c2)nn(-c2ccccc2)c1NC(=O)N[C@@H]1CN(CCc2ccccc2)C[C@H]1c1ccc(F)c(F)c1 [Compound I-62],> 1000
11,COCCN1C[C@@H](NC(=O)Nc2c(C)c(-c3cnn(C)c3)nn2-c2ccccc2)[C@@]2(CCc3ccccc32)C1 (racemic) [Compound I-7],> 1000
12,COCC(C(=O)N(C)C)N1C[C@@H](NC(=O)Nc2c(C)c(-c3cnn(C)c3)nn2-c2ccccc2)[C@H](c2ccc(F)c(F)c2)C1 (some centres unmarked) [Compound I-155],> 1000
13,Cc1c(-c2cnn(C)c2)nn(-c2ccccc2)c1NC(=O)N[C@H]1[C@H](c2ccc(F)c(F)c2)[C@@H]2CC[C@H]1N2 (racemic) [Compound I-68],> 1000
14,COCCCN1[C@@H]2CC[C@H]1[C@@H](c1ccc(F)c(F)c1)[C@@H]2NC(=O)Nc1c(C)c(-c2cnn(C)c2)nn1-c1ccccc1 (racemic) [Compound I-70],> 1000
15,COCC(=O)N1C[C@@H](NC(=O)Nc2c(C)c(-c3cnn(C)c3)nn2-c2ccccc2)[C@H](c2ccc(F)c(F)c2)C1 [Compound I-26],> 1000
16,COCCN1C[C@@H](NC(=NOC)Nc2c(C)c(-c3cnn(C)c3)nn2-c2ccccc2)[C@H](c2ccccc2)C1 [Compound I-144],> 1000
17,COCCN1C[C@@H](NC(=O)Nc2c(C)c(-c3cnn(C)c3)nn2-c2ccccc2)[C@H](c2cccc(C3=CCCCC3)c2)C1 (racemic) [Compound I-58],> 1000
18,COCCN1C[C@@H](NC(=O)Nc2c(C)c(-c3cnn(C)c3)nn2-c2ccccc2)[C@H](c2nc3ccccc3s2)C1 (racemic) [Compound I-153],> 1000
19,CCN1[C@@H]2CC[C@H]1[C@@H](c1ccc(F)c(F)c1)[C@@H]2NC(=O)Nc1c(C)c(-c2cnn(C)c2)nn1-c1ccccc1 (racemic) [Compound I-69],> 1000
20,COCCN1C[C@@H](NC(=O)Nc2c(C)c(-c3cnn(C)c3)nn2-c2ccccc2)[C@H](C2CCCCC2)C1 (racemic) [Compound I-9],100 to 1000
21,COCC(CNC(=N)N)N1C[C@@H](NC(=O)Nc2c(C)c(-c3cnn(C)c3)nn2-c2ccccc2)[C@H](c2ccc(F)c(F)c2)C1 (some centres unmarked) [Compound I-145],> 1000
22,COCCN1C[C@@H](NC(=O)Nc2c(C)c(-c3cnn(C)c3)nn2-c2ccccc2)[C@H](c2cccc3c2OCO3)C1 (racemic) [Compound I-75],100 to 1000
23,Cc1c(-c2cnn(C)c2)nn(-c2ccccc2)c1NC(=O)N[C@@H]1CN(Cc2ccc(C#N)o2)C[C@H]1c1ccc(F)c(F)c1 [Compound I-89],< 100

# Source: US10532985B2, “Heterocycle and carbocycle derivatives having TRKA inhibitory activity” (Shionogi & Co., Ltd., priority 2014, dated 2020)
